These results are taken from US8466156B2, “2-phenyl-4-cyclopropyl-pyrimidine derivatives” (Actelion Pharmaceuticals Ltd., priority 2008, dated 2013).

By IC50 is commonly meant the concentration at which inhibition is half-maximal.

This test has as its target T1, human P2Y12 receptor (Homo sapiens, UniProt Q9H244).
T1 construct: expressed in transfected cells; host or cells: Chinese Hamster Ovary (CHO) cells
In words: P2Y12 receptor binding assay (displacement of tritium-labeled 2-methyl-S-ADP on CHO cells). To be noted: CHO cells with recombinant expression of the human P2Y12 receptor, 2 hours at RT. The protocol:
P2Y12 Receptor Binding Assay
Chinese Hamster Ovary (CHO) cells with recombinant expression of the human P2Y12 receptor were cultured in 24 well cell-culture plates. Cells were washed three times with binding buffer (50 mM Tris pH 7.4, 100 mM NaCl, 1 mM EDTA, 0.5% BSA). The cells were then incubated with 0.5 ml per well binding buffer containing tritium-labeled 2-methyl-thio-adenosine 5′-diphosphate (2-methyl-S-ADP) (between 100'000 and 300'000 dpm per well) and various concentrations of test compounds. After incubation at RT for 2 hours, cells were washed three times with binding buffer. Then, cells were solubilized by addition of 0.5 ml solubilization buffer (SDS, NaOH, EDTA). The content of each well was then transferred into beta-counter vials and 2.0 ml of Ultima Gold Scintillation liquid was added.

Where [1] appears, read: comparison with reference compounds of WO 2006/114774.

Each structure is given as a SMILES string.

T1 sequence (Q9H244 whole entry): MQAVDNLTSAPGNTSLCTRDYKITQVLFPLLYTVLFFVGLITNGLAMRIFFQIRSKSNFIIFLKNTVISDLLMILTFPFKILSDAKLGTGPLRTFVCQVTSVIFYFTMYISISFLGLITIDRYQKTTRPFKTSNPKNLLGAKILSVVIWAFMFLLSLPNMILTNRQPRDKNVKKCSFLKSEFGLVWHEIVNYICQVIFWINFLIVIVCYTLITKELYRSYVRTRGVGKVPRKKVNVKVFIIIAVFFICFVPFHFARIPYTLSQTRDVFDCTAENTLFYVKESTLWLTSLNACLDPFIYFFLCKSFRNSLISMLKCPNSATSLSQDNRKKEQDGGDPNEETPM

With `CCOC(=O)N1CCN(C(=O)[C@H](CCC(=O)O)NC(=O)c2cc(C3CC3)nc(-c3ccccc3)n2)CC1` [Example 90 of WO 2006/114774, reference compound], the IC50 under setting [1] worked out at 43 nM.

For `CCCCOC(=O)N1CCN(C(=O)[C@H](CCC(=O)O)NC(=O)c2cc(C3CC3)nc(-c3ccccc3)n2)CC1` [Example 1, 4-{(S)-4-carboxy-2-[(6-cyclopropyl-2-phenyl-pyrimidine-4-carbonyl)-amino]-butyryl}-piperazine-1-carboxylic acid butyl ester], under “Example compounds table”, the IC50 amounted to 6 nM.

On to `CCCCOC(=O)N1CCN(C(=O)[C@H](CCC(=O)O)NC(=O)c2cc([C@@H]3C[C@@H]3COC)nc(-c3ccccc3)n2)CC1` (mixture of isomers) [Example 6, 4-((S)-4-carboxy-2-{[6-(cis-2-methoxymethyl-cyclopropyl)-2-phenyl-pyrimidine-4-carbonyl]-amino}-butyryl)-piperazine-1-carboxylic acid butyl ester], for which, where the note is “Example compounds table”, the concentration for half-maximal inhibition (IC50) turned out to be 9 nM.

For the compound `CCCCOC(=O)N1CCN(C(=O)[C@H](CCC(=O)O)NC(=O)c2cc([C@H]3C[C@@H]3COC)nc(-c3ccccc3)n2)CC1` [Example 3, 4-((S)-4-carboxy-2-{[6-((1S,2S)-2-methoxymethyl-cyclopropyl)-2-phenyl-pyrimidine-4-carbonyl]-amino}-butyryl)-piperazine-1-carboxylic acid butyl ester], the IC50 (Example compounds table) worked out at 5 nM.

As for `CCCCOC(=O)N1CCN(C(=O)[C@H](CCC(=O)O)NC(=O)c2cc([C@H]3C[C@@H]3CO)nc(-c3ccccc3)n2)CC1` [Example 4, 4-((S)-4-carboxy-2-{[6-((1S,2S)-2-hydroxymethyl-cyclopropyl)-2-phenyl-pyrimidine-4-carbonyl]-amino}-butyryl)-piperazine-1-carboxylic acid butyl ester], the IC50 (Example compounds table) is 4 nM.

`CCCCOC(=O)N1CCN(C(=O)[C@H](CCC(=O)O)NC(=O)c2cc([C@H]3C[C@@H]3COC)nc(-c3ccc(F)cc3)n2)CC1` [Example 5, 4-((S)-4-carboxy-2-{[2-(4-fluoro-phenyl)-6-((1S,2S)-2-methoxymethyl-cyclopropyl)-pyrimidine-4-carbonyl]-amino}-butyryl)-piperazine-1-carboxylic acid butyl ester]: the IC50 (Example compounds table) came out at 2 nM.

Consider `CCCCOC(=O)N1CCN(C(=O)[C@H](CCC(=O)O)NC(=O)c2cc([C@@H]3C[C@H]3COC)nc(-c3ccccc3)n2)CC1` (mixture of isomers) [Example 2, 4-((S)-4-carboxy-2-{[6-(trans-2-methoxymethyl-cyclopropyl)-2-phenyl-pyrimidine-4-carbonyl]-amino}-butyryl)-piperazine-1-carboxylic acid butyl ester], for which the IC50 (Example compounds table) is 3 nM.

As to `CCOC(=O)N1CCN(C(=O)[C@H](CCC(=O)O)NC(=O)c2cc(C3CC3CO)nc(-c3ccccc3)n2)CC1` (some centres unmarked) [Example 500 of WO 2006/114774, reference compound], the IC50 under setting [1] was 23 nM.
